According to patent publication US12227721B2, “Hydrofluorothioethers and methods of using same” (3M INNOVATIVE PROPERTIES COMPANY, priority 2020, dated 2025):

Columns and labels:
[1] = Largest Soluble Hydrocarbon (LSH); type: physicochemical; conditions: test material to hydrocarbon ratio approximately 1:1 to 1:2 by weight, no haze to the naked eye
Description: Largest Soluble Hydrocarbon (LSH): The LSH of each hydrofluorothioether and competitive example was determined by mixing the compound with hydrocarbons of varying molecular weight (CnH2n+2, where n=9 to 24) in a test material to hydrocarbon ratio of approximately 1:1 to 1:2 by weight at room temperature (23° C.) and at 50° C. […] A larger value of n is interpreted herein to indicate a greater ability of the hydrofluorothioether to clean hydrocarbons.
Table 2 summarizes results of Largest Soluble Hydrocarbon (LSH) testing of Examples 1-3 and Comparative Examples CE1-CE5.

[2] = Atmospheric lifetime from relative rate studies with hydroxyl radicals; type: physicochemical; conditions: rate of reaction with hydroxyl radicals relative to CH3Cl reference
Description: Atmospheric Lifetime and Global Warming Potential (GWP): The atmospheric lifetime of each test material was determined from relative rate studies utilizing chloromethane (CH3Cl) as a reference compound. The pseudo-first order reaction rates of the reference compound and the test compound with hydroxyl radicals (·OH) was determined in a laboratory chamber system. The atmospheric lifetime of the reference compound is documented in the literature. Based on this value and the pseudo-first order rates measured in the chamber experiments, the atmospheric lifetime for each specimen was calculated from the reaction rates for the test compound relative to the reference compounds and the reported lifetime of the reference compounds as shown below:
[formula] where τx is the atmospheric lifetime of test material, τr is the atmospheric lifetime of the reference compound, and kx and kr are the rate constants for the reaction of hydroxyl radical with test material and the reference compound, respectively. The concentrations of gases in the test chamber were quantified by Fourier transform infrared spectroscopy (FTIR). The measured atmospheric lifetime value of each fluid was subsequently used for the GWP calculation.

rats = assay: Repeat dose inhalation toxicity in rats; type: in vivo; conditions: 3 male rats, 750 ppm, 6-hour/day, five day repeated exposure
Description: Toxicity: The repeat dose inhalation toxicity in rats was determined by a five day repeated exposure of 3 male rats to 750 ppm of the test compound for 6 hours per day.
The repeat dose inhalation toxicity in rats was determined by a five day repeated exposure of 3 male rats to 750 ppm (6-hour/day) of Example 2.

SMILES	LSH (n in CnH2n+2) ([1]; 23° C.)	LSH (n in CnH2n+2) ([1]; 50° C.)	Atmospheric Lifetime [2] [years]	clinical signs of toxicity, body weights, organ weights (rats)	histopathological effects in respiratory tract, liver, kidneys (rats)
FC(F)(F)CC(F)(F)CCl [CE5]	14	17	–	–	–
COC(F)(F)C(F)(F)C(F)(F)F [CE2, CF3(CF2)2—O—CH3]	10	10	5.0	–	–
COC(F)(F)C(F)(F)C(F)(F)C(F)(F)F [CE1, n-C4F9—O—CH3]	9	9	–	–	–
CSC(F)(C(F)(F)F)C(F)(F)F [Example 2, perfluoroisopropyl methyl thioether]	18	>23	0.01	no adverse clinical signs of toxicity, changes in body weights, or organ weights (lungs, liver, and kidneys)	No adverse histopathological effects were observed in the respiratory tract, liver, or kidneys
CSC(F)(F)C(F)(F)C(F)(F)C(F)(F)F [Example 1, n-C4F9—S—CH3]	18	21	–	–	–
